Results on 20 molecules are retold here after US9790233B2, “Compositions and methods of modulating 15-PGDH activity” (CASE WESTERN RESERVE UNIVERSITY, priority 2012, dated 2017).

The structures appear in SMILES notation. Read-outs that look alike come from different tables or passages of the source.

Common to all, as to assay type: cell-based
In experiment [1] the test system is 15-PGDH luciferase fusion construct in V9m reporter cell line. Kind of experiment: 15-PGDH-luciferase fusion gene reporter induction, V9m cells.
For experiment [2], the system named is 15-PGDH luciferase fusion construct in Vaco503 reporter cell line. Kind of experiment: 15-PGDH-luciferase fusion gene reporter induction, V503 cells.
The subject of experiment [3] is 15-PGDH luciferase fusion construct in LS174T reporter cell line. Kind of experiment: 15-PGDH-luciferase fusion gene reporter induction, LS174T cells. Conditions: Homo sapiens.
Setting [4] is: read-out: V9M-SC3 Reporter activity ([…]) (%), V9m reporter cells, […] compound, % induction of luciferase activity over basal level, read-out: V9M-SC3 Reporter activity (2.5 μM) (%).
[5] abbreviates: read-out: V9M-SC3 Reporter activity ([…]), %, V9m reporter cells, […] compound, % induction of luciferase activity over basal level, read-out: V9M-SC3 Reporter activity (7.5 μM), %.
[6] abbreviates: read-out: V503-3H9-7 reporter activity, % ([…]), V503 reporter cells, […] compound, % induction of luciferase activity over basal level, read-out: V503-3H9-7 reporter activity, % (2.5 μM).
Setting [7] is: read-out: V503-3H9-7 reporter activity, % ([…]), V503 reporter cells, […] compound, % induction of luciferase activity over basal level, read-out: V503-3H9-7 reporter activity, % (7.5 μM).
The mark [8] stands for this setting: read-out: Ls174T-SC1 reporter activity, % ([…]), LS174T reporter cells, […] compound, % induction of luciferase activity over basal level, read-out: Ls174T-SC1 reporter activity, % (2.5 μM).
Setting [9] is: read-out: Ls174T-SC1 reporter activity, % ([…]), LS174T reporter cells, […] compound, % induction of luciferase activity over basal level, read-out: Ls174T-SC1 reporter activity, % (7.5 μM).
Setting [10] is: read-out: V9M-SC3 Reporter activity ([…]) (%), […], Table 18, read-out: V9M-SC3 Reporter activity (2.5 μM) (%).
[11] abbreviates: read-out: V503-3H9-7 reporter activity, % ([…]), […], Table 18, read-out: V503-3H9-7 reporter activity, % (2.5 μM).
Where [12] appears, read: read-out: V503-3H9-7 reporter activity, % ([…]), […], Table 18, read-out: V503-3H9-7 reporter activity, % (7.5 μM).
Setting [13] is: read-out: Ls174T-SC1 reporter activity, % ([…]), […], Table 18, read-out: Ls174T-SC1 reporter activity, % (2.5 μM).
Where [14] appears, read: read-out: Ls174T-SC1 reporter activity, % ([…]), […], Table 18, read-out: Ls174T-SC1 reporter activity, % (7.5 μM).
The mark [15] stands for this setting: read-out: V9M reporter activity ([…]), […], % induction of luciferase activity over basal level, Table 17, read-out: V9M reporter activity (2.5 μM).
Where [16] appears, read: read-out: V9M reporter activity ([…]), […], % induction over basal level, Table 17, read-out: V9M reporter activity (7.5 μM).
Where [17] appears, read: read-out: V503 reporter activity ([…]), […], % induction over basal level, Table 17, read-out: V503 reporter activity (2.5 μM).
Setting [18] is: read-out: V503 reporter activity ([…]), […], % induction over basal level, Table 17, read-out: V503 reporter activity (7.5 μM).
Setting [19] is: read-out: LS174T reporter activity ([…]), […], % induction over basal level, Table 17, read-out: LS174T reporter activity (2.5 μM).
[20] abbreviates: read-out: lS174T reporter activity ([…]), […], % induction over basal level, Table 17, read-out: lS174T reporter activity (7.5 μM).

Regarding `COc1ccc(OC)c(N(CC(=O)O)S(=O)(=O)c2ccccc2)c1` [SW122063], the activation at […] in experiment [1] (setting [4]) was found to be 1.67%; in experiment [1] (setting [5]), 4.8%; in experiment [2] (setting [6]), 42.5%; in experiment [2] (setting [7]), 44.1%; in experiment [3] (setting [8]), 22.6%; in experiment [3] (setting [9]), 19.9%.

Turning to `COc1ccc(OC)c(N(CC(=O)Nc2ccccc2C(N)=O)S(=O)(=O)c2ccccc2)c1` [530107-57-4], the activation at […] stood at 59.5% in experiment [1] (setting [10]); 52.6% in experiment [2] (setting [11]); 84.4% in experiment [2] (setting [12]); 5.45% in experiment [3] (setting [13]); 8.27% in experiment [3] (setting [14]).

With `COc1ccc(OC)c(N(CC(=O)Nc2ccc(I)cc2C)S(=O)(=O)c2ccccc2)c1` [compound 1003012], the activation at […] was -10.4% in experiment [1] (setting [15]); -0.9% in experiment [1] (setting [16]); 34.4% in experiment [2] (setting [17]); 58.5% in experiment [2] (setting [18]); 5.54% in experiment [3] (setting [19]); 19.8% in experiment [3] (setting [20]).

`COc1cccc(N(CC(=O)Nc2cccnc2)S(=O)(=O)c2ccccc2)c1` [335392−39−7]: the activation at […] in experiment [1] (setting [10]) was -12.8%; in experiment [2] (setting [11]), 18.9%; in experiment [2] (setting [12]) it was 21.9%; in experiment [3] (setting [13]), -0.54%; in experiment [3] (setting [14]), 14.3%.

Consider `COc1ccc(OC)c(N(CC(=O)Nc2cccnc2)S(=O)(=O)c2ccccc2OC(F)(F)F)c1` [SW202954], for which the activation at […] in experiment [1] (setting [4]) is 2.7%; in experiment [1] (setting [5]) it was 4.8%; in experiment [2] (setting [6]) it was -8.94%; in experiment [2] (setting [7]), 2.39%; in experiment [3] (setting [8]) it was -4.59%; in experiment [3] (setting [9]) it was -6.99%.

Take `CCOC(=O)c1ccc(NC(=O)CN(c2cc(OC)ccc2OC)S(=O)(=O)c2ccc(OC)c(OC)c2)cc1` [compound 1003132]: the activation at […] is -5.6% in experiment [1] (setting [15]); -0.21% in experiment [1] (setting [16]); 15.4% in experiment [2] (setting [17]); 16.1% in experiment [2] (setting [18]); 5.16% in experiment [3] (setting [19]); 1.73% in experiment [3] (setting [20]).

Consider `COc1ccc(S(=O)(=O)N(CC(=O)Nc2cccnc2)c2cc(C(F)(F)F)ccc2C(F)(F)F)cc1` [SW208008], for which the activation at […] in experiment [1] (setting [4]) is -5.96%; in experiment [1] (setting [5]) it was -0.92%; in experiment [2] (setting [6]), 31.9%; in experiment [2] (setting [7]) it was 39.6%; in experiment [3] (setting [8]) it was -2.16%; in experiment [3] (setting [9]), 10%.

Turning to `COc1ccc(N(CC(=O)Nc2cccnc2)S(=O)(=O)c2ccccc2)cc1` [418783−65−0], the activation at […] in experiment [1] (setting [10]) was 0.51%; in experiment [2] (setting [11]) it was 11.6%; in experiment [2] (setting [12]), 6.68%; in experiment [3] (setting [13]), -12.6%; in experiment [3] (setting [14]), 5.81%.

Take `COc1ccc(OC)c(N(CC(=O)Nc2cccnc2)S(=O)(=O)c2ccc(OC)c(OC)c2)c1` [680599−58−0]: the activation at […] in experiment [1] (setting [10]) is -5.29%; in experiment [2] (setting [11]), 16.7%; in experiment [2] (setting [12]), 28.9%; in experiment [3] (setting [13]) it was 11.5%; in experiment [3] (setting [14]), -13.8%.

For the molecule `COc1ccc(OC)c(N(CC(=O)Nc2ccccc2C(=O)NC(C)C)S(=O)(=O)c2ccc(OC)c(OC)c2)c1` [compound 1003378], the activation at […] in experiment [1] (setting [15]) was -4.42%; in experiment [1] (setting [16]) it was -3.27%; in experiment [2] (setting [17]), 7.23%; in experiment [2] (setting [18]), 16.7%; in experiment [3] (setting [19]) it was 7.3%; in experiment [3] (setting [20]), 1.27%.

Regarding `COc1cccc(NC(=O)CN(c2cc(OC)ccc2OC)S(=O)(=O)c2ccccc2)c1` [SW202976], the activation at […] is -18.5% in experiment [1] (setting [4]); 9.6% in experiment [1] (setting [5]); 36.8% in experiment [2] (setting [6]); 138% in experiment [2] (setting [7]); -9.97% in experiment [3] (setting [8]); 30.1% in experiment [3] (setting [9]).

Turning to `COc1ccc(OC)c(N(CC(=O)N2CCCc3ccccc32)S(=O)(=O)c2ccccc2)c1` [SW208006], the activation at […] in experiment [1] (setting [4]) was determined as 34.9%; in experiment [1] (setting [5]), 0.15%; in experiment [2] (setting [6]), 89.7%; in experiment [2] (setting [7]), 43.9%; in experiment [3] (setting [8]) it was 38.2%; in experiment [3] (setting [9]), 42.2%.

In the case of `COc1ccc(OC)c(N(CC(=O)Nc2ccc(Cl)cc2)S(=O)(=O)c2ccccc2)c1` [339589-53-6], the activation at […] in experiment [1] (setting [10]) was -1%; in experiment [2] (setting [11]), 200%; in experiment [2] (setting [12]), 105%; in experiment [3] (setting [13]) it was 51.2%; in experiment [3] (setting [14]), 89.7%.

For `COc1ccc(OC)c(N(CC(=O)Nc2cccnc2)S(=O)(=O)c2ccccc2C(F)(F)F)c1` [SW202944], the activation at […] in experiment [1] (setting [4]) is -0.95%; in experiment [1] (setting [5]), -3.73%; in experiment [2] (setting [6]), 131%; in experiment [2] (setting [7]), 94.6%; in experiment [3] (setting [8]) it was 32.5%; in experiment [3] (setting [9]) it was 15.8%.

Turning to `CCOc1ccc(N(CC(=O)Nc2cccnc2)S(=O)(=O)c2ccccc2)cc1` [428473−22−7], the activation at […] in experiment [1] (setting [10]) is -17.9%; in experiment [2] (setting [11]), 19.1%; in experiment [2] (setting [12]), 19.8%; in experiment [3] (setting [13]) it was -15.5%; in experiment [3] (setting [14]), 10.6%.

As for `COc1ccc(OC)c(N(CC(N)=O)S(=O)(=O)c2ccccc2)c1` [SW131635], the activation at […] in experiment [1] (setting [4]) was 11.4%; in experiment [1] (setting [5]), 15.1%; in experiment [2] (setting [6]), -37.7%; in experiment [2] (setting [7]) it was 14.4%; in experiment [3] (setting [8]), 111%; in experiment [3] (setting [9]), 14.1%.

`COc1ccc(OC)c(N(CC(=O)Nc2ccccc2C)S(=O)(=O)c2ccccc2)c1` [SW202975]: the activation at […] was -26.6% in experiment [1] (setting [4]); -8.97% in experiment [1] (setting [5]); 47.4% in experiment [2] (setting [6]); 116% in experiment [2] (setting [7]); -7.32% in experiment [3] (setting [8]); 17.2% in experiment [3] (setting [9]).

Turning to `CS(=O)(=O)c1sc2nc(-c3cccs3)cc(-c3ccccc3)c2c1N` [SW033290, 2-(methylsulfonyl)-4-phenyl-6-(thiophen-2-yl)thieno[2,3-b]pyridin-3-amine], the activation at […] in experiment [1] (read-out: V9M reporter activity ([…]), […], % increased luciferase activity over basal level, 100 = doubling, read-out: V9M reporter activity (2.5 uM)) is -34.3%; in experiment [1] (read-out: V9M reporter activity ([…]), […], % increased luciferase activity over basal level, 100 = doubling, read-out: V9M reporter activity (7.5 uM)), -25.4%; in experiment [2] (read-out: V503 reporter activity ([…]), […], % increased luciferase activity over basal level, read-out: V503 reporter activity (2.5 uM)), 30.9%; in experiment [2] (read-out: V503 reporter activity ([…]), […], % increased luciferase activity over basal level, read-out: V503 reporter activity (7.5 uM)), 17.7%; in experiment [3] (read-out: LS174T reporter activity ([…]), […], % increased luciferase activity over basal level, read-out: LS174T reporter activity (2.5 uM)), -0.24%; in experiment [3] (read-out: LS174T reporter activity ([…]), […], % increased luciferase activity over basal level, read-out: LS174T reporter activity (7.5 uM)), -6.58%.

With `COc1ccccc1N(CC(=O)Nc1cccnc1)S(=O)(=O)c1ccccc1` [367929−80−4], the activation at […] in experiment [1] (setting [10]) was -27.8%; in experiment [2] (setting [11]), -0.87%; in experiment [2] (setting [12]), -6.22%; in experiment [3] (setting [13]), 18.8%; in experiment [3] (setting [14]), -18%.

Take `COc1ccc(OC)c(N(CC(=O)Nc2ccncc2F)S(=O)(=O)c2ccccc2)c1` [SW208004]: the activation at […] in experiment [1] (setting [4]) amounted to 43.7%; in experiment [1] (setting [5]), 76.1%; in experiment [2] (setting [6]), 147%; in experiment [2] (setting [7]) it was 177%; in experiment [3] (setting [8]), 62.2%; in experiment [3] (setting [9]) it was 118%.
